Key:
4T1 cells = experiment: Syngeneic orthotopic 4T1 mammary carcinoma model in BALB/c mice; type: in vivo
Experimental: FIG. 26: Treatment with the v6 14mer reduces growth of the primary tumor and macroscopic metastases formation in the lung. 1×10^6 murine 4T1 cells per mouse were diluted in 50 μl RPMI plus 50 μl Matrigel and injected into the 6th mammary fat pad of 10 female BALB/c mice. One week after the injection, the mice were either injected intraperitoneally with 20 μg of the murine v6 14mer dissolved in 100 μl PBS or with 20 μg of control peptide (rat v6 14mer) dissolved in 100 μl PBS. The injection was performed 3 times per week for two weeks. After 2 weeks the mice were sacrificed and the primary tumors and the lungs were extracted. A: Overall reduction of the tumor volume in the v6 peptide treated group. B: Immunofluorescent staining for the endothelial marker CD34 to monitor vascularization of the primary tumor. Graphic representation of the reduction of the total vessel area. C: The v6 peptides led to a reduction in macroscopic lung metastasis. The black arrows mark examples for metastases. The scale bar corresponds to a size of 1 cm. Statistical evaluation of the average number of lung metastases. Significance was calculated using Student's t test: p*<0.01; **p<0.005. Each group consisted of 5 animals.
The effect of the CD44v6 14mer was tested in a syngeneic mouse model by orthotopic injection of the murine mammary carcinoma cells 4T1. 4T1 cells were originally derived from a spontaneously arising BALB/c mammary tumor. When introduced orthotopically, 4T1 cells grow rapidly at the primary site and form metastases in the lung and the lymph nodes within a period of 3-6 weeks. The tumor growth and metastatic spreading of 4T1 cells in BALB/c mice very closely mimics human breast cancer stage IV.
The 4T1 cells were injected orthotopically into the 6th mammary fat pad. Two groups of 5 animals each with the implanted tumor cells were then used for the experiment. One group was treated with the v6 14mer peptide, one with a control (rat) peptide. The injection of the peptide was performed 3 times per week and planned for three to four weeks but had to be stopped after two weeks as the control group suffered from large tumors.

Met and ERK = experiment: HGF induced activation of Met and ERK in L3.6pl cells (Western blot); type: cell-based, human; conditions: L3.6pl cells, peptide prior to induction with 10 ng/ml HGF
Experimental: Serum-starved cells (24 hours) were induced with the growth factor HGF (10 ng/mL) at 37° C. for 5 minutes. Where indicated, the cells were treated with peptides (100 ng/ml) prior to induction at 37° C. for 10 minutes (100 ng/mL CD44v6 peptide or control peptide). Following the induction with HGF, cells were washed with ice-cold phosphate-buffered saline (PBS). To detect activated Met and Erk, cells were lysed in sodium dodecyl sulfate (SDS)-sample buffer containing 100 mM dithiothreitol (DTT), boiled and subjected to western blot analysis using antibodies against phospho-Met and ERK. The loading controls were performed on the same blot after stripping (62.5 mM Tris, pH 6.8, 2% SDS, 0.8% DTT) by probing with the Met respectively ERK antibody. Blots were stained using the enhanced chemiluminescence system (Thermo Fisher Scientific, Schwerte, Germany). Bands in western blot analysis were quantified with the program Image J (National Institutes of Health).

HUVEC = experiment: Angiogenic response of HUVECs to angiogenic Langerhans islets; type: cell-based, human; conditions: HUVEC/collagen co-culture with islets, 5 to 7 days
Experimental: FIG. 20: The response of HUVECs to a mixture of angiogenic factors produced by angiogenic Langerhans islets can be reduced by CD44v6 specific inhibitors. HUVEC cells were mixed with CD44v6 antibody, CD44v6 peptide or control peptide and then suspended in a collagen gel. Hyperplastic angiogenic Langerhans islets isolated from the pancreas of 8-9 week old RIP1Tag2 mice were placed on top of the HUVEC/collagen mixture and overlaid with medium. Every third day new antibody or peptide was added and pictures were taken after 5 to 7 days. The number of islets that induced an angiogenic response of the ECs is given as percentage of all analysed islets. For quantification 60 islets per condition were analysed. Both the CD44v6 antibody and the CD44v6 peptide (human v6 14mer) reduced the angiogenic response, and the reduction obtained with the antibody is significant (p<0.05).
Langerhans islets are able to stimulate an angiogenic response when co-cultured with HUVEC cells in a collagen matrix. Such angiogenic hyperplastic islets of Langerhans were isolated by collagenase perfusion. They produce a mixture of angiogenic factors and thereby attract the ECs to get organised in capillary like structures. […] In agreement with published data around 60% of islets stimulated an angiogenic response in the control experiment (FIG. 20).

APC/Min/+ mice = experiment: APC/Min/+ mouse model, tumors in the duodenum; type: in vivo
Experimental: The effect of the v6 14mer was tested in the APC/Min/+ model model using 18 week old mice. The animals received an i.p. injection of 20 μg of v6 14mer (mouse 14mer) or control peptide (rat 14mer) three times per week for 6 weeks. Animals (three per group) were sacrificed at the end of the experiment and the duodenum was analyzed for the total number of tumors (FIG. 25).

hVEGF = experiment: Human VEGF in cell culture supernatant of L3.6pl cells; type: cell-based; conditions: 200 ng/ml peptide in the culture medium, 5 days
Experimental: Determination of human HGF and VEGF levels in cell culture medium of L3.6pl cells were performed using the Quantikine Human HGF Immunoassay and Quantikine Human VEGF Immunoassay from Roche (Mannheim, GER) and R&D Systems (Wiesbaden, Germany). For this purpose 3×10^6 cells were cultured for 5 days in a 15 cm plate in the presence of the respective peptides as indicated. The supernatant (20 ml) was centrifuged (1200 rpm) and the assay was performed according to manufacturer's instructions.

[1] = murine v6 14mer 20 μg i.p. 3 times per week for two weeks

Sequence: KEQWFGNRWHEGYR [human 14mer, human CD44v6 14mer peptide]
- macroscopic lung metastases per animal (4T1 cells; 20 μg i.p. 3 times per week for two weeks, 5 animals per group): three animals showed no macroscopic metastases at all, whereas two animals had only one metastase
- primary tumor size (4T1 cells; [1]): significant decrease of tumor size
- total number of blood vessels (anti-CD34 staining) (4T1 cells; [1]): significantly reduced
- Phosphorylation of Met and ERK (Met and ERK): inhibited
- angiogenic response of the ECs (HUVEC): reduced
- number of tumors in the duodenum (APC/Min/+ mice; i.p. injection for 6 weeks (FIG. 25)): reduces the number of tumors in the duodenum
- decrease according to the size of the tumor (APC/Min/+ mice; mouse 14mer 20 μg i.p. three times per week for 6 weeks): more pronounced in case of small tumors (0-1 mm>1-2 mm>2-5 mm)
- tumor size in the duodenum (APC/Min/+ mice; mouse 14mer 20 μg i.p. three times per week for 6 weeks, 18 week old mice, preliminary data): strong decrease of the tumor size in the duodenum
- tumor number for tumors bigger than 5 mm (APC/Min/+ mice; mouse 14mer 20 μg i.p. three times per week for 6 weeks, versus control peptide): higher
- hVEGF secretion by L3.6pl cells (hVEGF): can be blocked

— patent US9593146B2, “CD44v6-derived peptides for treating metastasizing cancer” (AMCURE GMBH, priority 2012, dated 2017)
